Test results reported in publication PMC8253220, “Molecular design, synthesis and in vitro biological evaluation of thienopyrimidine–hydroxamic acids as chimeric kinase HDAC inhibitors: a challenging approach to combat cancer” (Journal of Enzyme Inhibition and Medicinal Chemistry, 2021).

Tests used:
EGFR = EGFR (Homo sapiens, UniProt P00533); assay: In vitro EGFR tyrosine kinase inhibitory assay (Z'-LYTE, SelectScreen); assay type: biochemical; settings: 10 µM single dose
Method: (§1) The target compounds were evaluated for their in vitro inhibitory activities against EGFR, VEGFR-2, and HDAC6. The EGFR and VEGFR-2 inhibitory assays were performed at Thermo Fischer Scientific, Madison, WI, USA (SelectScreenServices@thermofisher.com). The HDAC inhibitory assays were performed at BPS Bioscience, San Diego, CA, USA (www.bpsbioscience.com). Initially, all of the synthesised target compounds were evaluated for their percent inhibitory activity against EGFR, VEGFR-2, and HDACs at 10 µM single dose concentration, in which their mean percent inhibition is summarised in (Figure 5, Tables 1 and [2]). Representative compounds were evaluated for their percent inhibitory activity against EGFR and VEGFR-2 at 6 different concentrations (0.1 nM, 1 nM, 10 nM, 100 nM, 1 µM, 10 µM) to subsequently calculate their IC50 values (Table 3). Additionally, all of the synthesised target compounds were submitted to the National Cancer Institute “NCI” Bethesda, Maryland, USA (www.dtp.nci.nih.gov), to evaluate theirs in vitro antiproliferative activities against NCI 60- cancer cell line panel.
(§2) In vitro enzyme inhibition determination for the synthesised compounds was carried out in Thermo Fischer Scientific, Madison, WI, USA (SelectScreenServices@thermofisher.com). The EGFR and VEGFR-2 tyrosine kinase % inhibitory activity at a single-dose concentration of 10 µM was performed initially then representative compounds were evaluated at single-dose concentrations of (0.1 nM, 1 nM, 10 nM, 100 nM, 1 µM) using ZYLTE technology. A fluorescence-based, coupled-enzyme format is employed in the biochemical assay and depends on the sensitivity of proteolytic cleavage to non-phosphorylated and phosphorylated peptides. Then IC50 values for selected compounds were determined by GraphPad Prism at Misr international university.

full NCI 60 cell panel = assay: NCI one-dose screen, whole panel statistics; assay type: cell-based, human; settings: 1.00E-5 Molar; for Mean Growth Percent: mean over panel
Method: All of the synthesised structures were selected and submitted to NCI based on computer modelling techniques and the degree of diversity of structures for the evaluation of their antiproliferative activity. The 20 synthesised compounds were selected with their respective NCI codes [NCS D-820157- NCS D-820176] for the inhibition percent assay at an initial single dose of 10 μM on the full NCI 60 cell panel, where the mean graph of the percent growth for all compounds on the full NCI cell panel is evaluated, compared to the untreated control cells (Supplementary Material). In vitro cell line inhibition % of all synthesised compounds is represented in (Table 1 of Supplementary Material).
All of the synthesised compounds (20) were submitted to NCI and selected for in vitro anticancer assay against a panel of 60 cancer cell lines. The methodology of assay and calculations is as reported.

VEGFR-2 = VEGFR-2 (Homo sapiens, UniProt P35968); assay: In vitro VEGFR-2 tyrosine kinase inhibitory assay (Z'-LYTE, SelectScreen); assay type: biochemical
Method: as §1, §2

HDAC6 = target: T1, HDAC6 (Homo sapiens, UniProt Q9UBN7); assay: In vitro HDAC6 inhibitory assay (BPS Bioscience, fluorogenic); assay type: biochemical; settings: 10 µM
T1 construct: purchased BPS Bioscience 50006
T1 sequence (Q9UBN7 1-1215): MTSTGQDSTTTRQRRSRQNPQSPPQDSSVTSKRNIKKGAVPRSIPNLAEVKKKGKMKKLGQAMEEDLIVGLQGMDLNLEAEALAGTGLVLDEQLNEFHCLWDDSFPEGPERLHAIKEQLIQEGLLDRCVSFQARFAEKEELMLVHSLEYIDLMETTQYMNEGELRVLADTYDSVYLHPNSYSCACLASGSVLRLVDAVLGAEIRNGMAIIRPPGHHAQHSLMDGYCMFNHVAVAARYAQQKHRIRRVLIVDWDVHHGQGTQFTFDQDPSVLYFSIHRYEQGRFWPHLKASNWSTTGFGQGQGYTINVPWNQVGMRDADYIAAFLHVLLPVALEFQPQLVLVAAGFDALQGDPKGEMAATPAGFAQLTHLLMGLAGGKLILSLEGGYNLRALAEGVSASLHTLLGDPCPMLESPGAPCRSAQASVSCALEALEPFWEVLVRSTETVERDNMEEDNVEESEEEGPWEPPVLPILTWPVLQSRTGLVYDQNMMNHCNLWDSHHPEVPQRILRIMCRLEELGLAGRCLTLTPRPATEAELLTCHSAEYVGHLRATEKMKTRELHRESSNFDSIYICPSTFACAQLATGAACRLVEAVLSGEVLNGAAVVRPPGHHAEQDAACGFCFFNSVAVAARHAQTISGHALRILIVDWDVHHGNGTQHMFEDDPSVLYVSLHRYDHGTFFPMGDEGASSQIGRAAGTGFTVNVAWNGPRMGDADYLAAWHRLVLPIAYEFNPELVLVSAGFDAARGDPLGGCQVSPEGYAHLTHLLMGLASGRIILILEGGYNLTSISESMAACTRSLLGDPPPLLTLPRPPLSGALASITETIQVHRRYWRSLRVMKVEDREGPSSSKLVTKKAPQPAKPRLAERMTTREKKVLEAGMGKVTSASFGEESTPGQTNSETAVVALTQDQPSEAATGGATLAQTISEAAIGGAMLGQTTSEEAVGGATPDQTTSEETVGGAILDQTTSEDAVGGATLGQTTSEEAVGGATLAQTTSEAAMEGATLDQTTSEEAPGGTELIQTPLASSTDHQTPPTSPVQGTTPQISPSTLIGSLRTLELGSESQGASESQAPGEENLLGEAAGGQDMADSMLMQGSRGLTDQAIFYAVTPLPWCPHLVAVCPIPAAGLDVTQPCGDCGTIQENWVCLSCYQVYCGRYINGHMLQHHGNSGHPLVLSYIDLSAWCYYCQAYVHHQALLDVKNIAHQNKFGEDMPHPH
Method: (1 picture or pasted object on this page, not shown here)
HDAC activity assays were performed in duplicates at each concentration. The

Chain of VEGFR-2 (P35968 20-1356): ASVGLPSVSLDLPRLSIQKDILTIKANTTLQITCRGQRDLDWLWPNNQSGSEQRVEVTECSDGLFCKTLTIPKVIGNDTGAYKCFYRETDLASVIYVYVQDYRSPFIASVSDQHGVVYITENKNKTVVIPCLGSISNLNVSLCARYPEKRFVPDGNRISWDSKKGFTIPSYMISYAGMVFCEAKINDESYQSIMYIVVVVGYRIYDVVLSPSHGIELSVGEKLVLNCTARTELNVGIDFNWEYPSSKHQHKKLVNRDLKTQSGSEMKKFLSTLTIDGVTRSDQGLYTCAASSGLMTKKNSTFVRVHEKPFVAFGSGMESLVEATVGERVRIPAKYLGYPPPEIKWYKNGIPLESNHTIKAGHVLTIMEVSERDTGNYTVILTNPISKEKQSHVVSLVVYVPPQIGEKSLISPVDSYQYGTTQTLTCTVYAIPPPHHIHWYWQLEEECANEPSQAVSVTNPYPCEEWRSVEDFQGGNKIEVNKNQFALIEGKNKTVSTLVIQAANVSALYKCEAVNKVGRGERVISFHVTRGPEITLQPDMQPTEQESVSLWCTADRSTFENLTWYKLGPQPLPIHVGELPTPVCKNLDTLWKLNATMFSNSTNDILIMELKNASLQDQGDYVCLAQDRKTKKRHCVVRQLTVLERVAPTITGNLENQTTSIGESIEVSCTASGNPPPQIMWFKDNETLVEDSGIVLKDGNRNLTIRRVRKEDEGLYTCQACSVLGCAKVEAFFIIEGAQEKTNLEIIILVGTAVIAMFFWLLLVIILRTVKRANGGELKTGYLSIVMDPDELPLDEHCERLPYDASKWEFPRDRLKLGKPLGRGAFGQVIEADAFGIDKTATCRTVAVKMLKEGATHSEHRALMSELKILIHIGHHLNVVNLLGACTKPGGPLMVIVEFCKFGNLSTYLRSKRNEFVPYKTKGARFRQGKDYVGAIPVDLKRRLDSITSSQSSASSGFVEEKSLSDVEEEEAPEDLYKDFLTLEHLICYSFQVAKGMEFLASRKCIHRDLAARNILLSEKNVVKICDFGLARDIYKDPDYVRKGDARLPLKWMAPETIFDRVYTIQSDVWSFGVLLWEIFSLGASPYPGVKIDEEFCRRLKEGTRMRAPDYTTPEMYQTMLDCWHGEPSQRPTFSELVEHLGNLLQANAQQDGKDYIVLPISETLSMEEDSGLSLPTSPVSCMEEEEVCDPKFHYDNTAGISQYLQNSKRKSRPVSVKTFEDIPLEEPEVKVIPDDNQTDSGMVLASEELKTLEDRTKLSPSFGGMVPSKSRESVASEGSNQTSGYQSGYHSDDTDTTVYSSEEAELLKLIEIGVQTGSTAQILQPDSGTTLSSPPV
Chain of EGFR (P00533 25-1210): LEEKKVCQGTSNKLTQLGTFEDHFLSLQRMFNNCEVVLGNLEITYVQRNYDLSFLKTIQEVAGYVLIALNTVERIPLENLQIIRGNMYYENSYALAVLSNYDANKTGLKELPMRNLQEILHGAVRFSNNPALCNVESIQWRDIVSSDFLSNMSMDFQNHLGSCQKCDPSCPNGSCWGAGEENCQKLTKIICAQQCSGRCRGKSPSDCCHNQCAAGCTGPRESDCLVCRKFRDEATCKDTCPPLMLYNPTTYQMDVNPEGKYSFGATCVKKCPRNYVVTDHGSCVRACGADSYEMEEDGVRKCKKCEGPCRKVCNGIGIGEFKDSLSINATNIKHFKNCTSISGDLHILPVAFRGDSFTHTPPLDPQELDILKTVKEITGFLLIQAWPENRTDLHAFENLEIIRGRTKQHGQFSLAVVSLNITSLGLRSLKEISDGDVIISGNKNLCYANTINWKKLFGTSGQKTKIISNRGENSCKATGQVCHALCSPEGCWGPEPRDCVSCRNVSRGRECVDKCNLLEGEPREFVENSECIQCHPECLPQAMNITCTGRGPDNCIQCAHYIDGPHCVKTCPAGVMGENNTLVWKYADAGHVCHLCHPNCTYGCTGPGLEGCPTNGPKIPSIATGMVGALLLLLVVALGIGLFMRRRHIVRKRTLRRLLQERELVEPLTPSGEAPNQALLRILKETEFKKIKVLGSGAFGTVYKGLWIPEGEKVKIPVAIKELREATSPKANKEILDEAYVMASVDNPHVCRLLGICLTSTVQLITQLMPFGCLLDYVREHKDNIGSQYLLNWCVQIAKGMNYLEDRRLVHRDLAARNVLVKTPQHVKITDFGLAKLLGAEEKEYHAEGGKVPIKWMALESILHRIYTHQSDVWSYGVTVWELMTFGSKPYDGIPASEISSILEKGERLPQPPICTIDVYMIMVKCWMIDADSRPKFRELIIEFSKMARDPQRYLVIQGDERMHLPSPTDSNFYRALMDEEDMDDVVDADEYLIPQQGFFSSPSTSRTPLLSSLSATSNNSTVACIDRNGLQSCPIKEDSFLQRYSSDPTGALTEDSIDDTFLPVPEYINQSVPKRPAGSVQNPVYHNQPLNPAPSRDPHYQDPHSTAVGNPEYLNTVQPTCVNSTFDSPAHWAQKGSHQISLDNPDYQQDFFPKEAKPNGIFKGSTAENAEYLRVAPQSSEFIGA

Compound | inhibition at 10 µM (EGFR) [%] | Delta (one dose mean graph) (full NCI 60 cell panel) [%] | Range (one dose mean graph) (full NCI 60 cell panel) [%] | Mean Growth Percent (full NCI 60 cell panel) [%] | inhibition at 10 µM (VEGFR-2; 10 µM single dose) [%] | melting point [°C] | Mean % inhibition HDAC6 (HDAC6) [%] | inhibition at 10 µM (HDAC6) [%] | inhibition at 0.0001 µM (VEGFR-2; 0.1 nM compound, 10 μM ATP, read-out: % Inhibition mean, KDR (VEGFR2)) [%] | inhibition at 0.001 µM (VEGFR-2; 1 nM compound, 10 μM ATP, read-out: % Inhibition mean, KDR (VEGFR2)) [%] | inhibition at 0.01 µM (VEGFR-2; 10 nM compound, 10 μM ATP, read-out: % Inhibition mean, KDR (VEGFR2)) [%] | inhibition at 0.1 µM (VEGFR-2; 100 nM compound, 10 μM ATP, read-out: % Inhibition mean, KDR (VEGFR2)) [%] | inhibition at 1 µM (VEGFR-2; 1000 nM compound, 10 μM ATP, read-out: % Inhibition mean, KDR (VEGFR2)) [%] | Mean % inhibition VEGFR-2 (VEGFR-2; 10 µM single dose) [%] | IC50 (VEGFR-2; read-out: IC50 in enzyme assays VEGFR-2) [nM]
Cc1c(C(=O)NO)sc2ncnc(Nc3cccc4[nH]cnc34)c12 [Compound 15a, 4-(1H-benzo[d]imidazol-4-ylamino)-N-hydroxy-5-methylthieno[2,3-d]pyrimidine-6-carboxamide] | 45 | 22.48 | 43.89 | 103.12 | 36 | 280 | 8 | 7 |  |  |  |  |  |  | 
Cc1c(C(=O)NO)sc2ncnc(Nc3ccc(NC(=O)Nc4ccccc4)cc3)c12 [Compound 7a, 1–(4-(6-(hydroxycarbamoyl)-5-methylthieno[2,3-d]pyrimidin-4-ylamino)phenyl)-3-phenylurea] | 48 | 24.69 | 48.09 | 99.34 | 89 | > 200 | 5 | 7 |  |  |  |  |  |  | 
Cc1c(C(=O)NCCCC(=O)NO)sc2ncnc(Nc3ccc(NC(=O)Nc4ccccc4)cc3)c12 [Compound 12a, 1–(4-(6-((4-(hydroxyamino)-4-oxobutyl)carbamoyl)-5-methylthieno[2,3-d]pyrimidin-4-ylamino)phenyl)-3-phenylurea] | 11 | 25.38 | 46.43 | 100.71 | 48 | 219 |  | 7 |  |  |  |  |  |  | 
Cc1c(C(=O)NCCC(=O)NO)sc2ncnc(Nc3ccc(Cl)cc3)c12 [Compound 19c, 4–(4-chlorophenylamino)-N-(3-(hydroxyamino)-3-oxopropyl)-5-methylthieno[2,3-d]pyrimidine-6-carboxamide] | 78 | 24.83 | 44.72 | 104.82 | 21 | 282 | 9 | 7 |  |  |  |  |  |  | 
Cc1c(C(=O)NO)sc2ncnc(Nc3ccc(NC(=S)Nc4ccccc4)cc3)c12 [Compound 7d, 1–(4-(6-(hydroxycarbamoyl)-5-methylthieno[2,3-d]pyrimidin-4-ylamino)phenyl)-3-phenylthiourea] | 78 | 17.28 | 35.68 | 102.34 | 45 | 300 |  | 6 |  |  |  |  |  |  | 
Cc1c(C(=O)NCCC(=O)NO)sc2ncnc(Nc3ccc(F)c(Cl)c3)c12 [Compound 19d, 4–(3-chloro-4-fluorophenylamino)-N-(3-(hydroxyamino)-3-oxopropyl)-5-methylthieno[2,3-d]pyrimidine-6-carboxamide] | 96 | 19.56 | 44.43 | 104.37 | 26 | 276 | 0 |  |  |  |  |  |  |  | 
Cc1c(C(=O)NCCC(=O)NO)sc2ncnc(Nc3ccc(NC(=O)Nc4ccccc4)cc3)c12 [Compound 11a, 1–(4-(6-((3-(hydroxyamino)-3-oxopropyl)carbamoyl)-5-methylthieno[2,3-d]pyrimidin-4-ylamino)phenyl)-3-phenylurea] | 12 | 21.26 | 44.07 | 100.98 | 47 | 225 | 7 | 5 |  |  |  |  |  |  | 
Cc1c(C(=O)NO)sc2ncnc(Nc3ccccc3)c12 [Compound 15b, N-hydroxy-5-methyl-4-(phenylamino)thieno[2,3-d]pyrimidine-6-carboxamide] | 98 | 24.31 | 53.05 | 97.09 | 32 | 200 |  | 30 |  |  |  |  |  |  | 
COc1cccc(NC(=O)Nc2ccc(Nc3ncnc4sc(C(=O)NCCC(=O)NO)c(C)c34)cc2)c1 [Compound 11b, 1–(4-(6-((3-(hydroxyamino)-3-oxopropyl)carbamoyl)-5-methylthieno[2,3-d]pyrimidin-4-ylamino)phenyl)-3–(3-methoxyphenyl)urea] | 5 | 17.95 | 40.74 | 100.99 | 75 | 257 to 260 | 13 |  |  |  |  |  |  |  | 
Cc1c(C(=O)NO)sc2ncnc(Nc3ccc(NC(=O)Nc4cccc(C(F)(F)F)c4)cc3)c12 [Compound 7c, 1–(4-(6-(hydroxycarbamoyl)-5-methylthieno[2,3-d]pyrimidin-4-ylamino)phenyl)-3–(3-(trifluoromethyl)phenyl)urea] | 11 | 43.18 | 65.35 | 97.22 | 104 | 285 |  | 8 | 6 | 6 | 2 | 36 | 90 | 100 | 191
COc1cccc(NC(=O)Nc2ccc(Nc3ncnc4sc(C(=O)NCCCC(=O)NO)c(C)c34)cc2)c1 [Compound 12b, 1–(4-(6-((4-(hydroxyamino)-4-oxobutyl)carbamoyl)-5-methylthieno[2,3-d]pyrimidin-4-ylamino)phenyl)-3–(3-methoxyphenyl)urea] | 5 | 18.34 | 33.01 | 100.10 | 83 | 231 to 233 | 7 | 13 |  |  |  |  |  |  | 
